Measured values as given in publication PMC7642425, “Engineering cofactor supply and NADH-dependent D-galacturonic acid reductases for redox-balanced production of L-galactonate in Saccharomyces cerevisiae” (Scientific Reports, 2020).

Key:
[1] = biological target: T1, AnGaaA (Aspergillus niger, UniProt A8DRH9); assay: HPLC of L-galactonate in cultures of expressing yeast; assay type: cell-based; conditions: whole cells, sorbitol co-substrate, YlSdr supplying NADPH, pH 6.3, 30 °C
T1 construct: gene gaaA; synthetic ORF codon optimized for S. cerevisiae; expressed from multicopy plasmid in yeast; whole-cell conversion
T1 sequence (A8DRH9 1-412): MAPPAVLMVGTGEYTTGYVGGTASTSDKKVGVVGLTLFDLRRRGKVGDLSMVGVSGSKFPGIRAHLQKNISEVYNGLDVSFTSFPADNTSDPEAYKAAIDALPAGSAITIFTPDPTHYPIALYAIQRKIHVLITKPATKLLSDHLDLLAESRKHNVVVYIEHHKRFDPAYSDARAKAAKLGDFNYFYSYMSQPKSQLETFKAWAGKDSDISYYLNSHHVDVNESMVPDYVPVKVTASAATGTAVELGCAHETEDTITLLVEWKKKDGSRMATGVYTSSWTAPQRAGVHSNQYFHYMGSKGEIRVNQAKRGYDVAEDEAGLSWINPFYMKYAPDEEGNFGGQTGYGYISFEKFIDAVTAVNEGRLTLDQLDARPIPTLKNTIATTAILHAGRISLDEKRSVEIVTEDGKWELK

[2] = biological target: T2, TrGar1 (Trichoderma reesei, UniProt Q3ZFI7); assay: as above; assay type: cell-based; conditions: whole cells, sorbitol co-substrate, YlSdr supplying NADPH, pH 6.3, 30 °C
T2 construct: gene gar1; synthetic ORF codon optimized for S. cerevisiae; expressed in yeast strains co-expressing GatA, Hxt13 and sorbitol dehydrogenase; whole-cell conversion
T2 sequence (Q3ZFI7 1-309): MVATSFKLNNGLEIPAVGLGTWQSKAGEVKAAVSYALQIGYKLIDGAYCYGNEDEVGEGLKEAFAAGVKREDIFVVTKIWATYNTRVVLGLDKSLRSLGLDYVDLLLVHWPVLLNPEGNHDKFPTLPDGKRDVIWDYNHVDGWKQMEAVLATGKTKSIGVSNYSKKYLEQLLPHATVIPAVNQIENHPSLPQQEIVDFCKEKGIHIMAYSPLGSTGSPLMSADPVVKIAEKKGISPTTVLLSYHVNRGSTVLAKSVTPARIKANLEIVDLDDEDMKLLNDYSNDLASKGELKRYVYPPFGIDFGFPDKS

[3] = biological target: T3, AnGar1 (Aspergillus niger, UniProt A2R7U3); assay: NAD(P)H oxidation at […] nm, yeast crude extract; HPLC of L-galactonate in cultures; assay type: biochemical; conditions: 100 mM GalA, NADPH, 10 mM potassium phosphate pH 7.2
T3 construct: gene An16g04770; synthetic ORF codon optimized for S. cerevisiae; expressed from plasmid in yeast CEN.PK2-1C, clear crude extract assayed against empty-vector control
T3 sequence (A2R7U3 1-319): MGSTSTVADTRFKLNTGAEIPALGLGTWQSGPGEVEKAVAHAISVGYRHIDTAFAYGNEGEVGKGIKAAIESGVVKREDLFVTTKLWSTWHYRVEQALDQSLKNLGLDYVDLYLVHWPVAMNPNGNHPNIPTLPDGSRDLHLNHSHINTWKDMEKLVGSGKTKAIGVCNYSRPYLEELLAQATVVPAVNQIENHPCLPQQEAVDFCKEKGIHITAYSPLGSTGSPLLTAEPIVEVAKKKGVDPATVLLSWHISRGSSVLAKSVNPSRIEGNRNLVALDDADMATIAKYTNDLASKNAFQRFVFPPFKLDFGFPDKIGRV

[4] = biological target: T3, AnGar1; assay: NADPH oxidation at […] nm, yeast crude extract; assay type: biochemical; conditions: 100 mM GalA, 160 or 800 uM NADPH, 10 mM potassium phosphate pH 7.2
[5] = biological target: T3, AnGar1; assay: NADH oxidation at […] nm, yeast crude extract; assay type: biochemical; conditions: 160 or 800 uM NADH, 100 mM GalA, 10 mM potassium phosphate pH 7.2; competitive

For `O=C(O)[C@H]1OC(O)[C@H](O)[C@@H](O)[C@H]1O` (stereo partly drawn) [D-galacturonic acid], the “HPLC of L-galactonate in cultures of expressing yeast” value [1] was “The lower titers observed with AnGaaA in comparison to TrGar1”, the “HPLC of L-galactonate in cultures of expressing yeast” value [2] was “Wildtype TrGar1 and AnGar1 produce comparable amount of GalOA” and the “NAD(P)H oxidation at 340 nm, yeast crude extract; HPLC of L-galactonate in cultu” value [3] was “we demonstrate, for the first time, the activity of AnGar1 as a GalA reductase”.
With `NC(=O)C1=CN([C@@H]2O[C@H](COP(=O)(O)OP(=O)(O)OC[C@H]3O[C@@H](n4cnc5c(N)ncnc54)[C@H](OP(=O)(O)O)[C@@H]3O)[C@@H](O)[C@H]2O)C=CC1` [NADPH] the “NADPH oxidation at 340 nm, yeast crude extract” value [4] was “lower compared to those with NADPH of the wildtype enzyme”.
With `NC(=O)c1ccc[n+]([C@@H]2O[C@H](COP(=O)(O)OP(=O)(O)OC[C@H]3O[C@@H](n4cnc5c(N)ncnc54)[C@H](OP(=O)(O)O)[C@@H]3O)[C@@H](O)[C@H]2O)c1` [NADP] the “relative activity (% of activity without NADP)” value [5] was “when NADP was added to competitively inhibit NADH binding, only the mutants were able”.
